HELM strings list units from the 5' end as sugar, base in round brackets, then linkage (d deoxyribose, r ribose, m 2'-O-methyl, p phosphodiester). Strings are as the collection lists them; they lack the last nucleoside at the 3' end of the tested compound. [moe] = 2'-O-(2-methoxyethyl) (MOE); [sp] = phosphorothioate linkage; [m5C] = 5-methylcytosine
Each substance was assayed against PRNP (assay: mouse, dose not given). Details: ASO.
In the case of “RNA1{[moe](T)[sp].[moe](G)p.[moe](G)p.[moe](T)p.[moe](A)[sp].d(G)[sp].d(T)[sp].d(T)[sp].d(T)[sp].d(T)[sp].d(T)[sp].d([m5C])[sp].d(A)[sp].d(A)[sp].d(A)[sp].[moe](T)p.[moe]([m5C])p.[moe](A)[sp].[moe](A)}$$$$ (last 3' nucleoside missing)”, the 3 h FOB score is reported as 0 score 0-7.
For “RNA1{[moe](T)[sp].[moe](G)p.[moe](G)p.[moe](T)p.[moe](G)[sp].d(A)[sp].d(T)[sp].d(T)[sp].d(T)[sp].d(T)[sp].d(T)[sp].d(T)[sp].d([m5C])[sp].d([m5C])[sp].d(T)[sp].[moe](T)p.[moe](T)p.[moe]([m5C])[sp].[moe](T)}$$$$ (last 3' nucleoside missing)”, the 3 h FOB score was 0 score 0-7.
“RNA1{[moe](T)[sp].[moe](G)p.[moe](G)p.[moe](T)p.[moe](G)[sp].d(T)[sp].d(T)[sp].d(A)[sp].d(T)[sp].d(A)[sp].d([m5C])[sp].d(A)[sp].d(T)[sp].d(T)[sp].d(T)[sp].[moe](A)p.[moe](G)p.[moe](G)[sp].[moe]([m5C])}$$$$ (last 3' nucleoside missing)” was tested, and the 3 h FOB score was 1 score 0-7.
“RNA1{[moe](T)[sp].[moe](G)p.[moe](G)p.[moe](T)p.[moe](T)[sp].d(A)[sp].d(G)[sp].d([m5C])[sp].d(T)[sp].d(T)[sp].d(T)[sp].d(T)[sp].d(T)[sp].d(T)[sp].d(T)[sp].[moe]([m5C])p.[moe](A)p.[moe]([m5C])[sp].[moe](T)}$$$$ (last 3' nucleoside missing)” gave a 3 h FOB score of 6.25 score 0-7.
“RNA1{[moe](T)[sp].[moe](G)p.[moe](G)p.[moe](T)p.[moe](T)[sp].d(A)[sp].d(T)[sp].d(T)[sp].d(T)[sp].d(T)[sp].d(A)[sp].d(A)[sp].d(T)[sp].d(A)[sp].d(G)[sp].[moe](A)p.[moe](T)p.[moe](G)[sp].[moe](T)}$$$$ (last 3' nucleoside missing)” showed a 3 h FOB score of 1 score 0-7.
“RNA1{[moe](T)[sp].[moe](G)p.[moe](G)p.[moe](T)p.[moe](T)[sp].d(A)[sp].d([m5C])[sp].d(A)[sp].d(T)[sp].d(A)[sp].d(A)[sp].d(T)[sp].d(G)[sp].d(T)[sp].d(T)[sp].[moe]([m5C])p.[moe](A)p.[moe](T)[sp].[moe](T)}$$$$ (last 3' nucleoside missing)” showed a 3 h FOB score of 4 score 0-7.
“RNA1{[moe](T)[sp].[moe](G)p.[moe](G)p.[moe]([m5C])p.[moe](A)[sp].d([m5C])[sp].d(T)[sp].d(T)[sp].d(T)[sp].d([m5C])[sp].d(T)[sp].d(T)[sp].d(T)[sp].d(T)[sp].d(T)[sp].[moe](A)p.[moe](T)p.[moe](T)[sp].[moe](T)}$$$$ (last 3' nucleoside missing)” was tested, and the 3 h FOB score was 0 score 0-7.
Substance “RNA1{[moe](T)[sp].[moe](G)p.[moe](G)p.[moe]([m5C])p.[moe](A)p.[moe]([m5C])p.d(T)[sp].d(T)[sp].d(T)[sp].d([m5C])[sp].d(T)[sp].d(T)[sp].d(T)[sp].d(T)[sp].d(T)[sp].d(A)[sp].[moe](T)p.[moe](T)[sp].[moe](T)}$$$$ (last 3' nucleoside missing)” has a 3 h FOB score of 0.25 score 0-7.
For “RNA1{[moe](T)[sp].[moe](G)p.[moe](G)p.[moe]([m5C])p.[moe](T)[sp].d(T)[sp].d(A)[sp].d([m5C])[sp].d(T)[sp].d([m5C])[sp].d(G)[sp].d(G)[sp].d([m5C])[sp].d(T)[sp].d(T)[sp].[moe](G)p.[moe](T)p.[moe](T)[sp].[moe]([m5C])}$$$$ (last 3' nucleoside missing)”, the 3 h FOB score was 3.75 score 0-7.
“RNA1{[moe](T)[sp].[moe](G)p.[moe](T)p.[moe](A)p.[moe](G)[sp].d(A)[sp].d(A)[sp].d(G)[sp].d([m5C])[sp].d(A)[sp].d(T)[sp].d(T)[sp].d(G)[sp].d(T)[sp].d(A)[sp].[moe]([m5C])p.[moe]([m5C])p.[moe](T)[sp].[moe]([m5C])}$$$$ (last 3' nucleoside missing)” was tested, and the 3 h FOB score was 4.5 score 0-7.
Work on “RNA1{[moe](T)[sp].[moe](G)p.[moe](T)p.[moe](G)p.[moe](A)[sp].d([m5C])[sp].d(A)[sp].d(A)[sp].d(T)[sp].d(A)[sp].d(T)[sp].d(T)[sp].d(T)[sp].d(A)[sp].d([m5C])[sp].[moe](T)p.[moe]([m5C])p.[moe](T)[sp].[moe](T)}$$$$ (last 3' nucleoside missing)” yielded a 3 h FOB score of 2.25 score 0-7.
With “RNA1{[moe](T)[sp].[moe](G)p.[moe](T)p.[moe](G)p.[moe](T)[sp].d([m5C])[sp].d(A)[sp].d(T)[sp].d(A)[sp].d(A)[sp].d(T)[sp].d(T)[sp].d(T)[sp].d(T)[sp].d([m5C])[sp].[moe](T)p.[moe](T)p.[moe](A)[sp].[moe](G)}$$$$ (last 3' nucleoside missing)” the 3 h FOB score was 1 score 0-7.
“RNA1{[moe](T)[sp].[moe](G)p.[moe](T)p.[moe](G)p.[moe]([m5C])[sp].d(T)[sp].d(T)[sp].d(A)[sp].d(T)[sp].d(T)[sp].d(A)[sp].d(T)[sp].d(T)[sp].d([m5C])[sp].d(A)[sp].[moe](T)p.[moe](G)p.[moe](T)[sp].[moe](T)}$$$$ (last 3' nucleoside missing)” gave a 3 h FOB score of 0 score 0-7.
For “RNA1{[moe](T)[sp].[moe](G)p.[moe](T)p.[moe](G)p.[moe]([m5C])[sp].d(T)[sp].d(T)[sp].d(T)[sp].d(T)[sp].d([m5C])[sp].d([m5C])[sp].d(T)[sp].d(T)[sp].d(T)[sp].d([m5C])[sp].[moe](A)p.[moe](G)p.[moe](A)[sp].[moe](T)}$$$$ (last 3' nucleoside missing)”, the 3 h FOB score was 0.75 score 0-7.
“RNA1{[moe](T)[sp].[moe](G)p.[moe](T)p.[moe](T)p.[moe](A)[sp].d(T)[sp].d(T)[sp].d(T)[sp].d([m5C])[sp].d([m5C])[sp].d(T)[sp].d([m5C])[sp].d(T)[sp].d(G)[sp].d(T)[sp].[moe](G)p.[moe]([m5C])p.[moe](T)[sp].[moe](T)}$$$$ (last 3' nucleoside missing)” was tested, and the 3 h FOB score was 3.75 score 0-7.
In the case of “RNA1{[moe](T)[sp].[moe](G)p.[moe](T)p.[moe](T)p.[moe](T)[sp].d(G)[sp].d(T)[sp].d(T)[sp].d(T)[sp].d([m5C])[sp].d(T)[sp].d(T)[sp].d([m5C])[sp].d([m5C])[sp].d(A)[sp].[moe](T)p.[moe](T)p.[moe](G)[sp].[moe]([m5C])}$$$$ (last 3' nucleoside missing)”, the 3 h FOB score is reported as 1 score 0-7.
For “RNA1{[moe](T)[sp].[moe](G)p.[moe](T)p.[moe]([m5C])p.[moe](A)[sp].d(G)[sp].d(T)[sp].d(T)[sp].d(T)[sp].d(T)[sp].d(T)[sp].d([m5C])[sp].d([m5C])[sp].d([m5C])[sp].d([m5C])[sp].[moe](A)p.[moe]([m5C])p.[moe](A)[sp].[moe](T)}$$$$ (last 3' nucleoside missing)”, the 3 h FOB score was 0 score 0-7.
Work on “RNA1{[moe](T)[sp].[moe](G)p.[moe](T)p.[moe]([m5C])p.[moe](A)p.[moe](G)p.d(T)[sp].d(T)[sp].d(T)[sp].d(T)[sp].d(T)[sp].d([m5C])[sp].d([m5C])[sp].d([m5C])[sp].d([m5C])[sp].d(A)[sp].[moe]([m5C])p.[moe](A)[sp].[moe](T)}$$$$ (last 3' nucleoside missing)” yielded a 3 h FOB score of 0.5 score 0-7.
“RNA1{[moe](T)[sp].[moe](G)p.[moe](T)p.[moe]([m5C])p.[moe](A)p.d(G)[sp].d(T)[sp].d(T)[sp].d(T)[sp].d(T)[sp].d(T)[sp].d([m5C])[sp].d([m5C])[sp].d([m5C])[sp].[moe]([m5C])[sp].[moe](A)p.[moe]([m5C])p.[moe](A)}$$$$ (last 3' nucleoside missing)” was tested, and the 3 h FOB score was 0 score 0-7.
“RNA1{[moe](T)[sp].[moe](G)p.[moe](T)p.[moe]([m5C])p.[moe](A)p.d(T)[sp].d(A)[sp].d(A)[sp].d(T)[sp].d(T)[sp].d(T)[sp].d(T)[sp].d([m5C])[sp].d(T)[sp].[moe](T)p.[moe](A)p.[moe](G)[sp].[moe]([m5C])}$$$$ (last 3' nucleoside missing)” gave a 3 h FOB score of 0 score 0-7.
For “RNA1{[moe](T)[sp].[moe](G)p.[moe](T)p.[moe]([m5C])p.d(A)[sp].d(G)[sp].d(T)[sp].d(T)[sp].d(T)[sp].d(T)[sp].d(T)[sp].d([m5C])[sp].d([m5C])[sp].d([m5C])[sp].[moe]([m5C])p.[moe](A)p.[moe]([m5C])p.[moe](A)[sp].[moe](T)}$$$$ (last 3' nucleoside missing)”, the 3 h FOB score was 0 score 0-7.
With “RNA1{[moe](T)[sp].[moe](G)p.[moe]([m5C])p.[moe](A)p.[moe]([m5C])[sp].d(A)[sp].d([m5C])[sp].d(T)[sp].d(G)[sp].d(A)[sp].d([m5C])[sp].d([m5C])[sp].d(A)[sp].d(T)[sp].d(T)[sp].[moe](T)p.[moe](T)p.[moe](T)[sp].[moe](T)}$$$$ (last 3' nucleoside missing)” the 3 h FOB score was 1 score 0-7.
“RNA1{[moe](T)[sp].[moe](G)p.[moe]([m5C])p.[moe](T)p.[moe](T)[sp].d(A)[sp].d(T)[sp].d(T)[sp].d(A)[sp].d(T)[sp].d(T)[sp].d([m5C])[sp].d(A)[sp].d(T)[sp].d(G)[sp].[moe](T)p.[moe](T)p.[moe]([m5C])[sp].[moe](T)}$$$$ (last 3' nucleoside missing)” was tested, and the 3 h FOB score was 0 score 0-7.
With “RNA1{[moe](T)[sp].[moe](G)p.[moe]([m5C])p.[moe]([m5C])p.[moe](A)[sp].d([m5C])[sp].d(A)[sp].d(T)[sp].d(A)[sp].d(T)[sp].d(A)[sp].d(G)[sp].d(G)[sp].d(G)[sp].d(T)[sp].[moe]([m5C])p.[moe]([m5C])p.[moe](T)[sp].[moe](T)}$$$$ (last 3' nucleoside missing)” the 3 h FOB score was 3 score 0-7.
For “RNA1{[moe](T)[sp].[moe](T)p.[moe](A)p.[moe]([m5C])p.[moe](T)[sp].d([m5C])[sp].d(G)[sp].d(G)[sp].d([m5C])[sp].d(T)[sp].d(T)[sp].d(G)[sp].d(T)[sp].d(T)[sp].d([m5C])[sp].[moe]([m5C])p.[moe](A)p.[moe]([m5C])[sp].[moe](T)}$$$$ (last 3' nucleoside missing)”, the 3 h FOB score was 2.5 score 0-7.
In the case of “RNA1{[moe](T)[sp].[moe](T)p.[moe](G)p.[moe](T)p.[moe](G)[sp].d(A)[sp].d([m5C])[sp].d(A)[sp].d(A)[sp].d(T)[sp].d(A)[sp].d(T)[sp].d(T)[sp].d(T)[sp].d(A)[sp].[moe]([m5C])p.[moe](T)p.[moe]([m5C])[sp].[moe](T)}$$$$ (last 3' nucleoside missing)”, the 3 h FOB score is reported as 0 score 0-7.

— the OligoGym collection
